Target: HLA-DR10 (Homo sapiens, UniProt P01911)
Test: Subsequent screenings of ligands for binding to HLA-DR10

Chain of HLA-DR10 (P01911 30-266 with the stated changes): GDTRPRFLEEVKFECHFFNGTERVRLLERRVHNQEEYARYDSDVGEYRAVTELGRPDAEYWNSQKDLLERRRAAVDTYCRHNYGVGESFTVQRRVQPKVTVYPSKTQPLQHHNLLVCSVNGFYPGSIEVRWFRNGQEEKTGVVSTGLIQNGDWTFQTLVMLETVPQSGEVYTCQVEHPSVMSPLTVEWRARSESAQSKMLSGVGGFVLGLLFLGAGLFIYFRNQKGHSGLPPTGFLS
Chain of HLA-DR10 (P01903 26-254 partner): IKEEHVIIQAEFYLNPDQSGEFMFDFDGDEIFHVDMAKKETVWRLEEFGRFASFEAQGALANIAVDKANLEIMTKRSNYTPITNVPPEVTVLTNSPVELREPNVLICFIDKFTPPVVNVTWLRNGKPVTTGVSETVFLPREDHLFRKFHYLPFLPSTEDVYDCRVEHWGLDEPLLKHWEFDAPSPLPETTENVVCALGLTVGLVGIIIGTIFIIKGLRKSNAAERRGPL

observation with the target protein in screening: precipitated onto the target protein
Structure (SMILES): Nc1ccc(Oc2ccc(C(=O)c3ccc(C(=O)c4ccc(Oc5ccc(N)cc5)cc4)cc3)cc2)cc1 [1,4-Phenylenebis[[4-(4-aminophenoxy)phenyl]methanone]]

— patent US8536133B2, “Selective high-affinity polydentate ligands and methods of making such” (Lawrence Livermore National Security, LLC., priority 2004, dated 2013)
